We go through 1 compound from patent US20240270692A1, “S(+) FORM OF 4-(2,4-DIFLUOROPHENYL)-2-(1H-INDOL-3-YL)-4-OXO-BUTANOIC ACID” (TOHOKU UNIVERSITY, priority 2021, published 2024).

The nature of data set [1]: Physical properties: solubility in solvents. It is filed as physicochemical.
Data set [2] is described as follows: Physical properties: coloration and degradation of dissolution solutions. It is filed as physicochemical.

Regarding `O=C(C[C@H](C(=O)O)c1c[nH]c2ccccc12)c1ccc(F)cc1F` [S(+) form of MA5, 4-(2,4-difluorophenyl)-2-(1H-indol-3-yl)-4-oxo-butanoic acid], the solubility result is given as “slightly soluble” in data set [1] (in a 50% acetonitrile aqueous solution); “sparingly soluble” in data set [1] (in a 50% methanol aqueous solution); “easily soluble” in data set [1] (in acetone, acetonitrile, ethyl acetate, chloroform, dichloromethane, methanol, ethanol, and isopropanol). In addition, the “degradation product on silica gel TLC plate” value in data set [2] (alcohol-chloroform dissolution solution) was “a large amount of a degradation product was generated”; in data set [2] (dissolution solution developed immediately) it was “no degradation product was generated”; in data set [2] (dissolution solution spotted and developed after some time) it was “a degradation product appeared”; in data set [2] (ethyl acetate dissolution solution) it was “not easily generated”. In addition, the “coloration of dissolution solution” value in data set [2] (ethanol, isopropanol, acetone, acetonitrile, ethyl acetate, 50% acetonitrile aqueous solution, or 0.1% formic acid-containing acetonitrile solution, refrigerated for about a week) is listed as “does not become colored”; in data set [2] (methanol, dichloromethane, chloroform, 50% methanol aqueous solution, or 0.1% formic acid-containing methanol solution, refrigerated for about a week), “colored pale yellow”; in data set [2] (mixed solvent of an alcohol (methanol, ethanol, or isopropanol) and chloroform, the day after preparation), “colored yellow”. Besides, the “stability under a light, acid, or alkali condition” value in data set [2] (light, acid, or alkali condition) was “undergoes coloration and degradation”.
